Data taken from US12319648B2, “Fluorinated phenylacetic acid derivatives in a weed control method” (SYNGENTA CROP PROTECTION AG, priority 2019, dated 2025).

How the values were obtained:
Type in all cases: in vivo
[1] = test system: Amaranthus retoflexus (AMARE); test: Post-emergence herbicidal glasshouse test; conditions: for percentage damage caused to the plant, five-point scale, AMARE: post-emergence, 250 g/ha, 13 days after application; for % phytotoxicity AMARE: comparative post-emergence test
Experimental: (§1) Seeds of a variety of test species are shown in standard soil in pots Amaranthus retoflexus (AMARE), Ipomoea hederacea (IPOHE), Solanum nigrum (SOLNI), Lolium perenne (LOLPE). Echinochloa crus-galli (ECHCG), Setaria faberi (SETFA)). After cultivation for one day (pre-emergence) or after 8 days cultivation (post-emergence) under controlled conditions in a glasshouse (at 24/16° C., day/night; 14 hours light; 65% humidity), the plants are sprayed with an aqueous spray solution derived from the formulation of the technical active ingredient in acetone/water (50:50) solution containing 0.5% Tween 20 (polyoxyethylene sorbitan monolaurate, CAS RN 9005-64-5). Compounds are applied at 250 g/ha unless otherwise stated. The test plants are then grown in a glasshouse under controlled conditions in a glasshouse (at 24/16° C., day/night; 14 hours light; 65% humidity) and watered twice daily. After 13 days for pre and post-emergence, the test is evaluated for the percentage damage caused to the plant. The biological activities are shown in the following table on a five-point scale (5=81-100%; 4=61-80%; 3=41-60%; 2=21-40%; 1=0-20%).
(§2) Using the experimental conditions outlined above, a further test is conducted to compare the herbicidal properties of the difluro containing compound (1.014) with a representative compound (C1) referred to in GB901553. The compounds are applied at 1000 g/ha and 500 g/ha. The test is evaluated for the percentage damage caused to the plant (% phytotoxicity).

[2] = test system: Echinochloa crus-galli (ECHCG); test: Post-emergence herbicidal glasshouse test; conditions: for percentage damage caused to the plant, five-point scale, ECHCG: post-emergence, 250 g/ha, 13 days after application; for % phytotoxicity ECHCG: comparative post-emergence test
Experimental: as §1, §2

[3] = test system: Ipomoea hederacea (IPOHE); test: Post-emergence herbicidal glasshouse test; conditions: for percentage damage caused to the plant, five-point scale, IPOHE: post-emergence, 250 g/ha, 13 days after application; for % phytotoxicity IPOHE: comparative post-emergence test
Experimental: as §1, §2

Lolium perenne (LOLPE) [4] = test: Post-emergence herbicidal glasshouse test; conditions: for percentage damage caused to the plant, five-point scale, LOLPE: post-emergence, 250 g/ha, 13 days after application; for % phytotoxicity LOLPE: comparative post-emergence test
Experimental: as §1, §2

Setaria faberi (SETFA) [5] = test: Post-emergence herbicidal glasshouse test; conditions: for percentage damage caused to the plant, five-point scale, SETFA: post-emergence, 250 g/ha, 13 days after application; for % phytotoxicity SETFA: comparative post-emergence test
Experimental: as §1, §2

Solanum nigrum (SOLNI) [6] = test: Post-emergence herbicidal glasshouse test; conditions: for percentage damage caused to the plant, five-point scale, SOLNI: post-emergence, 250 g/ha, 13 days after application; for % phytotoxicity SOLNI: comparative post-emergence test
Experimental: as §1, §2

[7] = test system: Amaranthus retoflexus (AMARE); test: Pre-emergence herbicidal glasshouse test; conditions: for percentage damage caused to the plant, five-point scale, AMARE: pre-emergence, 250 g/ha, 13 days after application; for % phytotoxicity AMARE: comparative pre-emergence test
Experimental: as §1, §2

[8] = test system: Echinochloa crus-galli (ECHCG); test: Pre-emergence herbicidal glasshouse test; conditions: for percentage damage caused to the plant, five-point scale, ECHCG: pre-emergence, 250 g/ha, 13 days after application; for % phytotoxicity ECHCG: comparative pre-emergence test
Experimental: as §1, §2

[9] = test system: Ipomoea hederacea (IPOHE); test: Pre-emergence herbicidal glasshouse test; conditions: for percentage damage caused to the plant, five-point scale, IPOHE: pre-emergence, 250 g/ha, 13 days after application; for % phytotoxicity IPOHE: comparative pre-emergence test
Experimental: as §1, §2

Lolium perenne (LOLPE) [10] = test: Pre-emergence herbicidal glasshouse test; conditions: for percentage damage caused to the plant, five-point scale, LOLPE: pre-emergence, 250 g/ha, 13 days after application; for % phytotoxicity LOLPE: comparative pre-emergence test
Experimental: as §1, §2

Setaria faberi (SETFA) [11] = test: Pre-emergence herbicidal glasshouse test; conditions: for percentage damage caused to the plant, five-point scale, SETFA: pre-emergence, 250 g/ha, 13 days after application; for % phytotoxicity SETFA: comparative pre-emergence test
Experimental: as §1, §2

Solanum nigrum (SOLNI) [12] = test: Pre-emergence herbicidal glasshouse test; conditions: for percentage damage caused to the plant, five-point scale, SOLNI: pre-emergence, 250 g/ha, 13 days after application; for % phytotoxicity SOLNI: comparative pre-emergence test
Experimental: as §1, §2

O=C(O)C(F)(F)c1cccc(Br)c1F [Compound 1.033]
percentage damage caused to the plant, five-point scale, AMARE [1]: 5 (5=81-100%)
percentage damage caused to the plant, five-point scale, ECHCG [2]: 4 (4=61-80%)
percentage damage caused to the plant, five-point scale, IPOHE [3]: 4 (4=61-80%)
percentage damage caused to the plant, five-point scale, LOLPE (Lolium perenne (LOLPE) [4]): 1 (1=0-20%)
percentage damage caused to the plant, five-point scale, SETFA (Setaria faberi (SETFA) [5]): 4 (4=61-80%)
percentage damage caused to the plant, five-point scale, SOLNI (Solanum nigrum (SOLNI) [6]): 5 (5=81-100%)
percentage damage caused to the plant, five-point scale, AMARE [7]: 5 (5=81-100%)
percentage damage caused to the plant, five-point scale, ECHCG [8]: 4 (4=61-80%)
percentage damage caused to the plant, five-point scale, IPOHE [9]: 4 (4=61-80%)
percentage damage caused to the plant, five-point scale, LOLPE (Lolium perenne (LOLPE) [10]): 1 (1=0-20%)
percentage damage caused to the plant, five-point scale, SETFA (Setaria faberi (SETFA) [11]): 4 (4=61-80%)
percentage damage caused to the plant, five-point scale, SOLNI (Solanum nigrum (SOLNI) [12]): 5 (5=81-100%)

O=C(O)C(F)(F)c1cccc(F)c1Cl [Compound 1.036]
percentage damage caused to the plant, five-point scale, AMARE [1]: 4 (4=61-80%)
percentage damage caused to the plant, five-point scale, ECHCG [2]: 1 (1=0-20%)
percentage damage caused to the plant, five-point scale, IPOHE [3]: 4 (4=61-80%)
percentage damage caused to the plant, five-point scale, LOLPE (Lolium perenne (LOLPE) [4]): 1 (1=0-20%)
percentage damage caused to the plant, five-point scale, SETFA (Setaria faberi (SETFA) [5]): 1 (1=0-20%)
percentage damage caused to the plant, five-point scale, SOLNI (Solanum nigrum (SOLNI) [6]): 4 (4=61-80%)
percentage damage caused to the plant, five-point scale, AMARE [7]: 4 (4=61-80%)
percentage damage caused to the plant, five-point scale, ECHCG [8]: 1 (1=0-20%)
percentage damage caused to the plant, five-point scale, IPOHE [9]: 4 (4=61-80%)
percentage damage caused to the plant, five-point scale, LOLPE (Lolium perenne (LOLPE) [10]): 1 (1=0-20%)
percentage damage caused to the plant, five-point scale, SETFA (Setaria faberi (SETFA) [11]): 1 (1=0-20%)
percentage damage caused to the plant, five-point scale, SOLNI (Solanum nigrum (SOLNI) [12]): 4 (4=61-80%)

O=C(O)C(F)(F)c1cccc(Br)c1Cl [Compound 1.037]
percentage damage caused to the plant, five-point scale, AMARE [1]: 5 (5=81-100%)
percentage damage caused to the plant, five-point scale, ECHCG [2]: 4 (4=61-80%)
percentage damage caused to the plant, five-point scale, IPOHE [3]: 4 (4=61-80%)
percentage damage caused to the plant, five-point scale, LOLPE (Lolium perenne (LOLPE) [4]): 3 (3=41-60%)
percentage damage caused to the plant, five-point scale, SETFA (Setaria faberi (SETFA) [5]): 4 (4=61-80%)
percentage damage caused to the plant, five-point scale, SOLNI (Solanum nigrum (SOLNI) [6]): 5 (5=81-100%)
percentage damage caused to the plant, five-point scale, AMARE [7]: 5 (5=81-100%)
percentage damage caused to the plant, five-point scale, ECHCG [8]: 4 (4=61-80%)
percentage damage caused to the plant, five-point scale, IPOHE [9]: 4 (4=61-80%)
percentage damage caused to the plant, five-point scale, LOLPE (Lolium perenne (LOLPE) [10]): 3 (3=41-60%)
percentage damage caused to the plant, five-point scale, SETFA (Setaria faberi (SETFA) [11]): 4 (4=61-80%)
percentage damage caused to the plant, five-point scale, SOLNI (Solanum nigrum (SOLNI) [12]): 5 (5=81-100%)

O=C(O)C(Cl)(Cl)c1cccc(Cl)c1Cl [Compound C1, reference compound]
% phytotoxicity AMARE ([1]; 500 g/ha): 80%
% phytotoxicity AMARE ([1]; 1000 g/ha): 80%
% phytotoxicity ECHCG ([2]; 500 g/ha): 0%
% phytotoxicity ECHCG ([2]; 1000 g/ha): 10%
% phytotoxicity IPOHE ([3]; 500 g/ha): 70%
% phytotoxicity IPOHE ([3]; 1000 g/ha): 80%
% phytotoxicity LOLPE (Lolium perenne (LOLPE) [4]; 500 g/ha): 0%
% phytotoxicity LOLPE (Lolium perenne (LOLPE) [4]; 1000 g/ha): 20%
% phytotoxicity SETFA (Setaria faberi (SETFA) [5]; 500 g/ha): 0%
% phytotoxicity SETFA (Setaria faberi (SETFA) [5]; 1000 g/ha): 10%
% phytotoxicity SOLNI (Solanum nigrum (SOLNI) [6]; 500 g/ha): 60%
% phytotoxicity SOLNI (Solanum nigrum (SOLNI) [6]; 1000 g/ha): 70%
% phytotoxicity AMARE ([7]; 500 g/ha): 80%
% phytotoxicity AMARE ([7]; 1000 g/ha): 80%
% phytotoxicity ECHCG ([8]; 500 g/ha): 0%
% phytotoxicity ECHCG ([8]; 1000 g/ha): 0%
% phytotoxicity IPOHE ([9]; 500 g/ha): 30%
% phytotoxicity IPOHE ([9]; 1000 g/ha): 60%
% phytotoxicity LOLPE (Lolium perenne (LOLPE) [10]; 500 g/ha): 0%
% phytotoxicity LOLPE (Lolium perenne (LOLPE) [10]; 1000 g/ha): 0%
% phytotoxicity SETFA (Setaria faberi (SETFA) [11]; 500 g/ha): 0%
% phytotoxicity SETFA (Setaria faberi (SETFA) [11]; 1000 g/ha): 0%
% phytotoxicity SOLNI (Solanum nigrum (SOLNI) [12]; 500 g/ha): 60%
% phytotoxicity SOLNI (Solanum nigrum (SOLNI) [12]; 1000 g/ha): 70%
